The nature of series [1]: Relaxivity measurements at 1.41 T in water and human plasma. It is filed as physicochemical. The conditions noted are these: 37°C, normalized to Gd. The procedure: Relaxivity measurements at 1.41 T were performed using a MiniSpec mq60 spectrometer (Bruker Analytik, Karlsruhe, Germany) operating at a resonance frequency of 60 MHz and a temperature of 37°C. The T1 relaxation times were determined using the standard inversion recovery (IR) method with a fixed relaxation delay of at least 5 × T1. The variable inversion time (TI) was calculated automatically by the standard software of the MiniSpec mq60 (8 steps). The T2 measurements were performed by using a Carr-Purcell-Meiboom-Gill (CPMG) pulse sequence, applying a relaxation delay of at least 5 × T1.
Each relaxivity measurement was performed using three different Gd concentrations (3 concentrations between 0.05 and 2 mM). The T1 and T2 relaxation times of the example compounds 1 to 10 were measured in different media for example in water and human plasma. Human plasma preparation: For each experiment fresh blood was taken from a volunteer using 10 mL citrate-tubes (Sarstedt S-Monovette 02.1067.001, 10 mL, Citrate). The 10 mL citrate-tubes were carefully inverted 10 times to mix blood and anticoagulant and centrifuged for 15min at 1811 g at RT (Eppendorf, Centrifuge 5810R).
The relaxivities ri (where i=1, 2) were calculated based on the measured relaxation rates Ri in water and plasma: ri = (Ri−Ri(0))/CGd [formula] where Ri(0) represent the relaxation rate of the respective solvent and CGd the concentration of the compound normalized to the Gadolinium. The Gadolinium concentrations of the investigated solutions were verified by Inductively Coupled Plasma Mass Spectrometry (ICP-MS Agilent 7500a, Waldbronn, Germany). Table 3: Relaxivities of investigated compounds in water and human plasma at 1.41 T and relaxivities of Reference compounds 1-3 (RC1-RC3) at 1.5 T in water and bovine plasma. All values are measured at 37°C and normalized to Gd and given in L mmol-1 s-1.

In series [2] the target is T1, OATP1B1 (Homo sapiens, UniProt Q9Y6L6).
T1 sequence (Q9Y6L6 1-691): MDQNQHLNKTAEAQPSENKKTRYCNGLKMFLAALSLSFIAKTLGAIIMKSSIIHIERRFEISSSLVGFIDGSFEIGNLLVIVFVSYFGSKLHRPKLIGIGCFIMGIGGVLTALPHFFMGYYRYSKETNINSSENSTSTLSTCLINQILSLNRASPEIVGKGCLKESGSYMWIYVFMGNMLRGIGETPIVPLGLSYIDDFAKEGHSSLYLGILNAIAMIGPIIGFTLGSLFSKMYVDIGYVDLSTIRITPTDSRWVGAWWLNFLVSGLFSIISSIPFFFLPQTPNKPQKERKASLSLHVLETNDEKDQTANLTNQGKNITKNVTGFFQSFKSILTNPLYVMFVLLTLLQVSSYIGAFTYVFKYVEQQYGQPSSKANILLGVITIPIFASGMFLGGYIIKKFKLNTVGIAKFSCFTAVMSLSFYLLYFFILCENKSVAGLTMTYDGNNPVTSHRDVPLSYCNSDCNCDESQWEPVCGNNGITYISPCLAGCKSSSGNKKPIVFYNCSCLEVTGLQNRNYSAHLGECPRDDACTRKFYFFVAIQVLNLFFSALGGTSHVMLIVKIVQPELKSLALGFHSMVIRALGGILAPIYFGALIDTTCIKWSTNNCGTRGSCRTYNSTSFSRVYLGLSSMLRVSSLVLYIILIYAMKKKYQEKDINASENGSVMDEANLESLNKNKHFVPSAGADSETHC
Nature of the series: Uptake into stable transfected OATP1B1 HEK 293 cells. It is filed as cell-based. The conditions noted are these: OATP1B1-HEK 293 cell uptake with Rifampicine.

The target of series [3] is T2, OATP1B3 (Homo sapiens, UniProt Q9NPD5).
T2 sequence (Q9NPD5 1-702): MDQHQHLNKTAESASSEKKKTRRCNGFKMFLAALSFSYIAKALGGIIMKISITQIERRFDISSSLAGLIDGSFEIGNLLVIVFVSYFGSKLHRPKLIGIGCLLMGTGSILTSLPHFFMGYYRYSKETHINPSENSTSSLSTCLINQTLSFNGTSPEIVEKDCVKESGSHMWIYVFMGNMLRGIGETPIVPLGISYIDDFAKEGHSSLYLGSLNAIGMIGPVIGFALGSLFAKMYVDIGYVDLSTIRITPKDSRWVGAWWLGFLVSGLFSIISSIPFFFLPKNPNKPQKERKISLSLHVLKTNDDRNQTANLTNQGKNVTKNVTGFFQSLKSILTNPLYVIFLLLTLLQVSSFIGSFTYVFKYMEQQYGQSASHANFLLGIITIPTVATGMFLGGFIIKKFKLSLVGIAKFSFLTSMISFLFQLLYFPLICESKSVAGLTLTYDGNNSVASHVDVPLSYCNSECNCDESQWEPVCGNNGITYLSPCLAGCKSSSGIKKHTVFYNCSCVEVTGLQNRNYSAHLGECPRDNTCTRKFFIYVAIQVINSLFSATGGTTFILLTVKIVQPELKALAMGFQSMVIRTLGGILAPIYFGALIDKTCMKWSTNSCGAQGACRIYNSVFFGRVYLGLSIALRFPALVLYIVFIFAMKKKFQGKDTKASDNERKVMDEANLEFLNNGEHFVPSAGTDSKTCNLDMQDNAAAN
The experiment in a line: Uptake into stable transfected OATP1B3 HEK 293 cells. The conditions noted are these: OATP1B3-HEK 293 cell uptake with Rifampicine. It is filed as cell-based.

The subject of series [4] is freshly isolated rat hepatocytes. The experiment in a line: Uptake into freshly isolated rat hepatocytes. Particulars: for Uptake rat hepatocytes: 100 µmol Gd/L, 10 min, 37°C, relative to RC1 (Gd-EOB-DTPA); for Inhibition Rifampicine: rat hepatocyte uptake with OATP1B1/1B3 inhibitor Rifampicine, test item and inhibitor each 100 µM.
Protocol: The rat hepatocytes were incubated (2.5 ·10^5 cells/well) for 2.5 to 4h in collagen coated 24-well plates (Fa. Beckton Dickinson Biocoat, cell environments, Collagen I Cellware) in Williams E-medium (Fa. Sigma W1878) in an incubator (37°C, 5% CO2 and 95% oxygen). After incubation the adherent hepatocytes were washed once with 37°C Hepes carbonate transport buffer (500 µL/well). The test items and RC1 were prepared from stock solutions (180 to 500 mM concentration) in Hepes carbonate transport buffer at pH 7.4 to reach a final concentration of 100 µmοl Gd/L. The specific uptake of the test item or RC1 into rat hepatocytes via OATP1 B1 and OATP1 B3 was challenged using a known OATP1B1/1B3 inhibitor (Rifampicine, Fa. Sigma R3501, test item and inhibitor 1:1 each 100 µM final concentration). The prepared rat hepatocyte plates were incubated with test solutions (500 µL/well) at 37°C for 10 min using a thermoshaker (Fa. Grant Bio, PHMP). Triplicates were performed for each test item. After incubating the cells were washed once with cold PBS buffer (Fa. Gibco, Dulbeccos PBS (+)). After washing the intact hepatocytes were lysed by addition of 500 µL cold 0.01 % Triton-X 100 in Millipore water for 1h. […] After 1h 500 µL of 10 nM Terbium ICP-MS standard was added in 2% nitric acid and 0.01% Triton 100 before the Gadolinium concentrations in the lysate were measured using ICP-MS (Agilent 8900, singleQuad, integr. Time 0.3 s, no gas, 5 replicates, Gd m/z 157, Tb m/z 159). As a reference standard RC1 is used in the same well plate. The hepatocyte uptake of the test compound is calculated relative to RC1 (resulting in the unit % of RC1).

“Gadolinium-2,2',2"-[(2S)-10-(carboxymethyl)-2-(4-ethoxybenzyl)-1,4,7,10-tetraazacyclododecane-1,4,7-triyl]triacetate [Example 11]” had a r1 human plasma in series [1] of 6.2 L/mmol/s. The r1 water in series [1] worked out at 4.4 L/mmol/s. For the same substance, the entries for the “Inhibition Rifampicine” value in series [2], in series [3] and in series [4] were 64 % inhibition, 90 % inhibition and 96 % inhibition, respectively. Also, the Uptake rat hepatocytes in series [4] is on record as 49 % of RC1.

In the case of “Gadolinium-2,2',2"-[(2S)-2-(4-butoxybenzyl)-10-(carboxymethyl)-1,4,7,10-tetraaza cyclododecane-1,4,7-triyl]triacetate [Example 13]”, in series [1], the r1 human plasma amounted to 9.8 L/mmol/s and the r1 water was found to be 5.3 L/mmol/s. In addition, in series [2], the “Inhibition Rifampicine” value worked out at 88 % inhibition. Moreover, the “Inhibition Rifampicine” value in series [3] is given as 98 % inhibition. Also, in series [4], the Uptake rat hepatocytes is 137 % of RC1 and the “Inhibition Rifampicine” value is reported as 86 % inhibition.

As for “Gadolinium-2,2',2"-[(2S)-10-(carboxymethyl)-2-(4-ethoxybenzyl)-1,4,7,10-tetraazacyclododecane-1,4,7-triyl]triacetate [Example 10]”, the r1 human plasma in series [1] amounted to 6.4 L/mmol/s. In series [1], this substance showed a r1 water of 4.8 L/mmol/s. In addition, the “Inhibition Rifampicine” value in series [2] came to 73 % inhibition; in series [3], 96 % inhibition; in series [4], 96 % inhibition. The Uptake rat hepatocytes in series [4] was 104 % of RC1.

In series [1], “Gadolinium-2,2',2"-[10-(carboxymethyl)-2-(4-ethoxybenzyl)-1,4,7,10-tetraazacyclododecane-1,4,7-triyl]triacetate [Example 9]” came in with a r1 human plasma of 5.6 L/mmol/s and a r1 water of 4.3 L/mmol/s. In addition, in series [2], the “Inhibition Rifampicine” value is reported as 23 % inhibition. Moreover, the “Inhibition Rifampicine” value in series [3] stood at 94 % inhibition. For the same substance, in series [4], the Uptake rat hepatocytes is reported as 42 % of RC1 and the “Inhibition Rifampicine” value came out at 93 % inhibition.

Regarding “Gadolinium-2,2',2"-[10-(carboxymethyl)-2-(4-ethoxybenzyl)-1,4,7,10-tetraazacyclododecane-1,4,7-triyl]triacetate [Example 8]”, in series [1], the r1 human plasma worked out at 6.5 L/mmol/s and the r1 water turned out to be 4.7 L/mmol/s. The “Inhibition Rifampicine” value in series [2] is 75 % inhibition. The “Inhibition Rifampicine” value in series [3] is listed as 99 % inhibition. In series [4], the Uptake rat hepatocytes is recorded as 143 % of RC1 and the “Inhibition Rifampicine” value came to 96 % inhibition.

For “Gadolinium-2,2',2"-[(2S)-2-(4-butoxybenzyl)-10-(carboxymethyl)-1,4,7,10-tetraaza cyclododecane-1,4,7-triyl]triacetate [Example 12]”, the r1 human plasma in series [1] was 8.8 L/mmol/s. Also, the r1 water in series [1] was 4.7 L/mmol/s. Besides, the figures for the “Inhibition Rifampicine” value in series [2], in series [3] and in series [4] were 81 % inhibition, 98 % inhibition and 96 % inhibition, respectively. Also, in series [4], the Uptake rat hepatocytes is reported as 110 % of RC1.

The values above are taken from patent publication EP4335840A1, “NEW CONTRAST AGENTS FOR USE IN DIAGNOSTIC IMAGING” (priority 2022, dated 2024).
